Values quoted from earlier work, collected in patent publication US6277963A, “Antibodies directed toward extracellular signal-related kinases” (Regeneron Pharmaceuticals, Inc., priority 1997, dated 2001).

Target: MAP2 kinase (partially purified enzyme) (Mus musculus, UniProt P63085)
Sequence (P63085 whole entry): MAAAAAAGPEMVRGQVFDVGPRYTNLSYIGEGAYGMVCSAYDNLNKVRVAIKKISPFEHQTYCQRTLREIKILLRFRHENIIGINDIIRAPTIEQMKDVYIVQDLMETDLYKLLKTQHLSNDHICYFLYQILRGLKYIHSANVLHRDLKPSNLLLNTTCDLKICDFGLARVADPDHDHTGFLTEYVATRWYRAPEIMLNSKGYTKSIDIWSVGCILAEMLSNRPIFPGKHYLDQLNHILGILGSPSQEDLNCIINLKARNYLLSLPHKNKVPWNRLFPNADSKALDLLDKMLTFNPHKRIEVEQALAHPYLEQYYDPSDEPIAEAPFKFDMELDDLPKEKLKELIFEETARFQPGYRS

utilization of GTP | Structure (SMILES) | Km (read-out: Km for ATP)
– | Nc1ncnc2c1ncn2[C@@H]1O[C@H](COP(=O)(O)OP(=O)(O)OP(=O)(O)O)[C@@H](O)[C@H]1O [ATP] | 7 µM
did not appear to utilize GTP | Nc1nc2c(ncn2[C@@H]2O[C@H](COP(=O)(O)OP(=O)(O)OP(=O)(O)O)[C@@H](O)[C@H]2O)c(=O)[nH]1 [GTP] | –
